For data set [1], the system named is human erythrocytes. Kind of data set: Hemolytic activity (hemoglobin release). In kind it is cell-based. As to the method:
The hemolytic activity of the peptides was evaluated by determining hemoglobin release of suspensions of fresh human erythrocytes at 405 nm. Human red blood cells (Deutscher Blutspendedienst, München, Germany) were centrifuged and washed three times with Tris-buffer (10 mM Tris, 150 mM NaCl, pH 7.4). 80 µl of cells (1.5×10^9 cells/ml) were added to 20 µl of the peptide solution in 96-well plates and incubated for 45 min at 37°C. Final peptide concentrations were 0, 20, 50, 100 and 200 µg/ml. After centrifugation (1,500 g, 5 min, 20°C) 30 µl aliquots of the supernatant were transferred to 96-well plates containing 100 µl of water and released hemoglobin was determined using a microplate reader (OD405 nm). 100% hemolysis was determined with 2% SDS.

For the next data set, the system named is tested plant pathogens. In words: Microdilution assay, activity summarised over several tested plant pathogens. In kind it is cell-based. The settings on record: for active concentrations (MIC): statement over some / the majority of the tested plant pathogens or bacteria. As to the method:
In-vitro inhibition assays were performed in sterile flat-bottom 96-well polypropylene-plates (Greiner bio-one, Frickenhausen, Germany). 10 µl (antibacterial assay) or 20 µl (antifungal assay) of each concentration were loaded per well. Fresh bacterial colonies were transferred into LB-medium, grown to an OD600 nm of 0.08–0.1 and diluted 1∶100 with medium. 90 µl of this suspension containing about 10^5 CFU/ml of bacteria were added to each well resulting in final peptide concentrations from 0 to 100 µg/ml. After incubation at 27°C for 1–2d bacterial growth was analyzed by measuring the OD590 nm using a Tecan Genios microplate reader (Crailsheim, Germany).
Spores of plant pathogenic fungi were collected by washing sporulating cultures with water. Spore concentration was determined by haematocytometer and adjusted to 1.5–2×10^3 spores/ml in 2% malt extract medium. 80 µl of fungal spores were added per well resulting in final peptide concentrations from 0 to 100 µg/ml. After incubation at room temperature for 3d on a rotary shaker (300 rpm), fungal growth was determined by measuring the OD590 nm (Alternaria sp.) or by visual screening of the plates (Botrytis sp., Cladosporium sp.). The lowest peptide concentration, where no visible microbial growth could be detected, was determined for each organism-peptide combination and referred to as the minimal inhibitory concentration (MIC). At least two independent replicates were performed.
For orientation: Broth dilution looks for growth in wells or tubes with falling amounts of substance.

For data set [2], the system named is human erythrocytes. The settings on record: cited from earlier work.
The next data set concerns Botrytis cinerea. The settings on record: 2% malt extract medium, 1.5–2×10^3 spores/ml, room temperature, 3d, visual screening; lowest concentration with no visible growth; at least two independent replicates.
Another data set has as its system Alternaria alternata. The settings on record: 2% malt extract medium, 1.5–2×10^3 spores/ml, room temperature, 3d, OD590 nm; lowest concentration with no visible growth; at least two independent replicates.
Another data set relates to Cladosporium herbarum. The settings on record: 2% malt extract medium, 1.5–2×10^3 spores/ml, room temperature, 3d, visual screening; lowest concentration with no visible growth; at least two independent replicates.
The subject of a further data set is Fusarium solani. The conditions noted are these: 2% malt extract medium, room temperature, 3d; concentration range 1 to 64 µg/ml.
Data set [3] deals with Clavibacter michiganensis ssp. michiganensis. The settings on record: LB-medium, 27°C.
Data set [4] concerns Pectobacterium carotovorum ssp. carotovorum. The conditions noted are these: LB-medium, 27°C.
A further data set concerns Xanthomonas vesicatoria. The conditions noted are these: LB-medium, 27°C.
Data set [5] relates to Pseudomonas syringae pv. tomato. The conditions noted are these: LB-medium, 27°C.
Data set [6] concerns Pseudomonas syringae pv. syringae. The conditions noted are these: LB-medium, 27°C.
The next data set concerns Pseudomonas corrugata. The settings on record: LB-medium, 27°C.
Data set [7] deals with Arabidopsis mesophyll protoplasts. Kind of data set: Phytotoxicity on plant protoplasts. It is filed as cell-based. The settings on record: for phytotoxicity to plant protoplasts (in words) / Phytotoxicity: peptide concentration where protoplasts show first signs of cytoplasmic degradation: 1 h incubation, light microscope; for Phytotoxicity: peptide concentration where protoplasts show first signs of cytoplasmic degradation: 0, 10, 100, 200 µg/ml. As to the method: Phytotoxicity was measured on Arabidopsis mesophyll protoplasts prepared from leaves as described in [80]. 80 µl protoplast suspension containing about 5000 protoplasts were incubated with 20 µl peptide solution. Final peptide concentrations were 0, 10, 100 and 200 µg/ml. The phytotoxic effect of antimicrobial peptides was observed after 1 h with a light microscope. Hints to cell death are loss of spherical shape, chloroplast release and/or agglomeration of protoplasts.

The subject of data set [8] is P. syringae pv. tomato DC3000. The conditions noted are these: peptide concentrations up to 100 µg/ml, sprayed; cfu 30 min after treatment.
The subject of the next data set is P. syringae. The conditions noted are these: Table S5; 10 µg/ ml peptide; organism P. syringae pv syrimgae [sic].
The next data set deals with A. alternata. In words: Peptide spraying on inoculated tomato leaves, fungal growth. In kind it is in vivo, A. alternata on tomato (Microtom). The settings on record: 50 µg/ml peptide sprayed 22 h after inoculation (10^4 spores/ml); fungal DNA by RT-PCR. As to the method:
To determine antifungal activity of AMPs four week old tomato plants (Microtom) were inoculated with fungal spores using an aerosol can. Spores were harvested by washing sporulating plate-grown fungi (A. alternata and C. herbarum) with 62.5 mM KH2PO4 (pH 6.0) supplemented with 5.5 mM glucose and 0.1% Tween-20. One leaf per plant (three plants per treatment) was sprayed adaxial and abaxial with 500 µl spore suspension (10^4 spores/ml). In this way approximately 100 µl spore suspension was applied directly onto the plant surface. Plants were covered with a plastic cap to guarantee high humidity and incubated at 20°C. After two hours the T0 tissue sample was collected. AMPs were sprayed onto the leaf surface 22 h after inoculation. Leaves were harvested 24 h and 48 h after peptide treatment. Frozen material was homogenized in liquid nitrogen and fungal DNA was isolated. Quantification of fungal DNA content was done by qRT-PCR amplifying the nuclear encoded ribosomal internal transcribed spacer (ITS) regions. ITS1-forward and ITS4-reverse primers were used at an annealing temperature of 60°C: For A. alternata: ITS1-Alt-for, 5′-[…]-3′ and ITS4_Alt-rev, 5′-[…]-3′ and for C. herbarum: ITS1-Cla-for 5′-[…]-3′ and ITS4-Cla-rev, 5′-[…]-3′ (synthesized by metabion, Munich, Germany). […] Differences between the mean values were analysed using an unpaired t-test analysis of variance.

Setting [9] is: about 10^5 CFU/ml, 1–2d, OD590 nm, at least two independent replicates.

“And” between values parts separate entries of the source, which are not always exact repeats. Equal values may be shown once. Read-outs that look alike come from different tables or passages of the source. Ends that are not written are not given here.

Molecule `CC(C)C[C@H](NC(=O)[C@H](CCCNC(=N)N)NC(=O)CNC(=O)CNC(=O)[C@@H](N)CCCNC(=N)N)C(=O)N[C@H]1CSSC[C@@H](C(=O)N[C@H](C(=O)NCC(=O)N[C@@H](CCCNC(=N)N)C(N)=O)C(C)C)NC(=O)[C@H](C(C)C)NC(=O)[C@@H]2CSSC[C@H](NC(=O)[C@H](Cc3ccc(O)cc3)NC1=O)C(=O)N[C@@H](CCCNC(=N)N)C(=O)N[C@@H](CCCNC(=N)N)C(=O)N[C@@H](CCCNC(=N)N)C(=O)N[C@@H](Cc1ccccc1)C(=O)N2` [Protegrin I, reference compound] showed a Hemolytic activity: peptide concentration leading to 25% hemoglobin release of 50 µg/mL. In the data set on human erythrocytes [1] (50 µg/ml peptide, human red blood cells), the hemoglobin release was determined as 25%. The “Activity range: peptide concentrations necessary to inhibit growth of the listed bacteria strains” value with tested plant pathogens (Table S5, strains listed under strain specificity) was 1 to 8 µg/mL. Also, the Hemolytic activity with human erythrocytes [2] is < 80 µg/mL.

As for “GIGKFLHSAKKFGKAFVGEIMNS [Magainin II, reference compound]”, in the data set with tested plant pathogens, the “active concentrations (MIC)” value is 1 to 8 mg/L. The MIC (usually the smallest concentration in the dilution series that meets the test's criterion for growth inhibition) was 64 mg/L in the data set with Botrytis cinerea; > 64 mg/L in the data set with Alternaria alternata; 64 mg/L in the data set on Cladosporium herbarum; 2 mg/L against Fusarium solani; 32 mg/L in data set [3] (setting [9]); > 64 mg/L in [4] (setting [9]). Further, the MIC in the data set on Xanthomonas vesicatoria (setting [9]) was 8 mg/L; in [5] (setting [9]), 32 mg/L; in data set [6] (setting [9]), > 64 mg/L; against Pseudomonas corrugata (setting [9]) it was 32 mg/L. For the same molecule, in the data set with human erythrocytes [2] (Table S5, ref Zasloff, 1987), the Hemolytic activity is 5 µg/mL.

As for LKALRKALKHLA-NH2 [SP12], the “Hemolytic activity: peptide concentration leading to 25% hemoglobin release from human blood cells” value in the data set on human erythrocytes [1] (45 min, 37°C, Tris-buffer pH 7.4, 0, 20, 50, 100, 200 µg/ml, OD405 nm, 100% = 2% SDS, >200 = slight hemolytic activity at 200 µg/ml below threshold) was >200 µg/mL. Also, the MIC is >100 mg/L against Botrytis cinerea; >100 mg/L in the data set on Alternaria alternata; 20 mg/L with Cladosporium herbarum; >40 mg/L in data set [3] (setting [9]); >40 mg/L in data set [4] (setting [9]); 20 mg/L against Xanthomonas vesicatoria (setting [9]). Also, the MIC in data set [5] (setting [9]) is 2.5 mg/L; in data set [6] (setting [9]) it was 10 mg/L; in the data set on Pseudomonas corrugata (setting [9]), >40 mg/L.

Regarding LRFLKKALKKLF-NH2 [SP10-2], in the data set with human erythrocytes [1], the “Hemolytic activity: peptide concentration leading to 25% hemoglobin release from human blood cells” value was > 200 µg/mL. In addition, in [7], the “phytotoxicity to plant protoplasts (in words)” value was “very low phytotoxicity”. Besides, the “Phytotoxicity: peptide concentration where protoplasts show first signs of cytoplasmic degradation” value (“Phytotoxicity … of cytoplasmic degradation” below) in data set [7] is 200 µg/mL. For the same molecule, the MIC in [3] (Table 4, incubation period 2d) was found to be 0.25 mg/L; in data set [4] (Table 4, incubation period 1d) it was 1.0 mg/L; against Xanthomonas vesicatoria (Table 4, incubation period 2d), 0.25 mg/L; in [5] (Table 4, incubation period 1d), 0.5 mg/L; in data set [6] (Table 4, incubation period 1d), 0.1 mg/L; against Pseudomonas corrugata (Table 4, incubation period 2d), 0.5 mg/L. For the same molecule, the “growth inhibition on tomato leaves” value in data set [8] stood at 90%. Moreover, in the data set with P. syringae, the “Growth inhibition of bacteria/fungi on leaf surface” value (from here on “Growth inhibition of bacteria/fungi”) is given as 50%.

Take LRFLKKILKHLF-NH2 [SP10-D]: the “phytotoxicity (in words)” value in data set [7] (concentrations up to 100 µg/ml) is given as “no phytotoxicity”. In addition, in the data set on A. alternata, the “growth inhibition on tomato leaves” value was “around 70%”. In addition, the MIC in the data set with Botrytis cinerea was 10 mg/L; in the data set with Alternaria alternata, 5 mg/L; against Cladosporium herbarum, 5 mg/L; in data set [3] (setting [9]), 5 mg/L; in data set [4] (setting [9]), > 40 mg/L; in the data set with Xanthomonas vesicatoria (setting [9]) it was 2 mg/L.

Regarding LRIIKKILKKLI-NH2 [SP10-5], the “phytotoxicity to plant protoplasts (in words)” value in [7] is “very low phytotoxicity”. Moreover, the “Phytotoxicity … of cytoplasmic degradation” value in [7] turned out to be 200 µg/mL. The MIC in [3] (Table 4, incubation period 2d) was 0.5 mg/L; in data set [4] (Table 4, incubation period 1d) it was 2.5 mg/L; in the data set with Xanthomonas vesicatoria (Table 4, incubation period 2d) it was 0.25 mg/L; in data set [5] (Table 4, incubation period 1d), 0.25 mg/L; in data set [6] (Table 4, incubation period 1d) it was 0.5 mg/L; with Pseudomonas corrugata (Table 4, incubation period 2d), 0.5 mg/L. The “growth inhibition on tomato leaves” value in data set [8] amounted to 90%. Besides, in the data set on P. syringae, the “Growth inhibition of bacteria/fungi” value is 70%.

With LRKLKKILKKLF-NH2 [SP10-10], the “Hemolytic activity: peptide concentration leading to 25% hemoglobin release from human blood cells” value in the data set with human erythrocytes [1] (Table 4, 45 min, 37°C, highest concentration tested 200 µg/ml) is “– (no value indicates none detectable hemolytic activity up to the highest concentration tested)”. Besides, the MIC in data set [3] (Table 4, incubation period 2d) was found to be 0.25 mg/L; in [4] (Table 4, incubation period 1d), 2.5 mg/L; in the data set with Xanthomonas vesicatoria (Table 4, incubation period 2d), 0.1 mg/L; in data set [5] (Table 4, incubation period 1d), 0.5 mg/L; in data set [6] (Table 4, incubation period 1d), 0.25 mg/L; in the data set with Pseudomonas corrugata (Table 4, incubation period 2d), 0.25 mg/L.

As for RKKRLKLLKRLL-NH2 [SP1-1], the “phytotoxicity to plant protoplasts (in words)” value in [7] is “very low phytotoxicity”. In addition, the “Phytotoxicity … of cytoplasmic degradation” value in data set [7] was 200 µg/mL. The MIC in [3] (Table 4, incubation period 2d) is 2.5 mg/L; in data set [4] (Table 4, incubation period 1d), >10 mg/L; against Xanthomonas vesicatoria (Table 4, incubation period 2d), 0.1 mg/L; in data set [6] (Table 4, incubation period 1d), 0.1 mg/L; against Pseudomonas corrugata (Table 4, incubation period 2d), <0.1 mg/L. Further, in [8], the “growth inhibition on tomato leaves” value is recorded as 90%. Also, the “Growth inhibition of bacteria/fungi” value in the data set on P. syringae was 40%.

Consider RKRAARLLKRLV-NH2 [SP2], for which the “active concentrations (MIC)” value with tested plant pathogens is 1 to 5 mg/L and 1 to 2 mg/L. The MIC against Botrytis cinerea was >100 mg/L; in the data set on Alternaria alternata, >100 mg/L; against Cladosporium herbarum it was 20 mg/L; in data set [3] (setting [9]), 2 mg/L; in data set [4] (setting [9]) it was >40 mg/L; in the data set with Xanthomonas vesicatoria (setting [9]), 2 mg/L. Also, the MIC in [5] (setting [9]) was determined as 2 mg/L; in data set [6] (setting [9]), 2 mg/L; with Pseudomonas corrugata (setting [9]) it was 5 mg/L.

These data come from paper PMC3741113, “De-Novo Design of Antimicrobial Peptides for Plant Protection” (PLoS ONE, 2013).
